# Test results as given in patent US4317824A, “Derivatives of quinoxaline-1,4-dioxides” (Abic, Ltd., priority 1976, dated 1982).
# Columns and labels:
# [1] = tested on: Pseud. Aur.; assay: antimicrobial activity, minimal inhibitory concentration, Pseud. Aur.; type: cell-based
# Method: (§1) The antimicrobial activity of some compounds according to the present invention was measured and the results are shown in the following Tables. The activity is indicated as the minimal inhibitory concentration in μg/ml.
# [2] = tested on: Mycoplasma gallisept; assay: antimicrobial activity, minimal inhibitory concentration, Mycoplasma gallisept; type: cell-based
# Method: as §1
# [3] = tested on: Cand. Alb.; assay: antimicrobial activity, minimal inhibitory concentration, Cand. Alb.; type: cell-based
# Method: as §1
# [4] = tested on: Proteus; assay: antimicrobial activity, minimal inhibitory concentration, Proteus; type: cell-based
# Method: as §1
# [5] = tested on: Crypt. Neof.; assay: antimicrobial activity, minimal inhibitory concentration, Crypt. Neof.; type: cell-based
# Method: as §1
# [6] = tested on: B. Cereus; assay: antimicrobial activity, minimal inhibitory concentration, B. Cereus; type: cell-based; conditions: Bacillus cereus
# Method: as §1
# [7] = tested on: E. Coli; assay: antimicrobial activity, minimal inhibitory concentration, E. Coli; type: cell-based; conditions: Escherichia coli
# Method: as §1
# [8] = tested on: Staph. Aur.; assay: antimicrobial activity, minimal inhibitory concentration, Staph. Aur.; type: cell-based
# Method: as §1
# [9] = tested on: Trichophyt. Rubrum; assay: antimicrobial activity, minimal inhibitory concentration, Trichophyt. Rubrum; type: cell-based
# Method: as §1
# [10] = tested on: B. Subtilis; assay: antimicrobial activity, minimal inhibitory concentration, B. Subtilis; type: cell-based; conditions: Bacillus subtilis
# Method: as §1
# [11] = tested on: Shig. Flex.; assay: antimicrobial activity, minimal inhibitory concentration, Shig. Flex.; type: cell-based
# Method: as §1
# [12] = tested on: Salm. Typh.; assay: antimicrobial activity, minimal inhibitory concentration, Salm. Typh.; type: cell-based; conditions: read-out: minimal inhibitory concentration
# Method: as §1
# [13] = tested on: E. Coli; assay: Systemic E. Coli infection in mice; type: in vivo; conditions: systemic E. Coli infection, 2,5 mg × 2 per day
# Method: (§2) Some compounds of general formula Id were tested also in vivo.
# [14] = tested on: St. aur; assay: Systemic St. aur infection in mice; type: in vivo
# Method: as §2
# [15] = tested on: E. Coli; assay: E. Coli infections chick; type: in vivo; conditions: 50 mg/kg
# Method: as §2
# [16] = tested on: Aspergillus Niger; assay: antimicrobial activity, minimal inhibitory concentration, Aspergillus Niger; type: cell-based
# Method: as §1
# [17] = tested on: E. Coli; assay: U. Tract infections in mice (E. Coli); type: in vivo; conditions: U. Tract infections (E. Coli), 2,5 mg × 10 days
# Method: as §2
# [18] = in vivo; conditions: mouse, po
# [19] = Acute oral LD50 in chicks; conditions: chicken, in vivo
# [20] = growth promotion experiment with male turkeys for 4 weeks; type: in vivo; conditions: 50 g/ton in the feed, P<0.001
# Excerpt: The results were statistically significant (P<0.001).
# [21] = systemic St. aur infection, 2,5 mg × 2 per day
Structure (SMILES),MIC [2],MIC [6],MIC [7],MIC [8],MIC [9],MIC [10],MIC [11],MIC [12],other results
CN1CCN(NC(=NO)c2c[n+]([O-])c3ccccc3[n+]2[O-])CC1,2 µg/mL,50 µg/mL,25 µg/mL,50 µg/mL,25 µg/mL,,,,MIC [1]: 11 to 100 µg/mL; MIC [3]: 25 µg/mL; MIC [4]: 11 to 100 µg/mL; MIC [5]: 10 to 25 µg/mL
"[O-][n+]1cc(C(Cl)=NO)[n+]([O-])c2ccccc21 [Example 6, 2(α-chloro)-carboxaldoxime-quinoxaline-1,4-dioxide]",25 to 50 µg/mL,25 µg/mL,25 µg/mL,25 µg/mL,11 to 100 µg/mL,11 to 100 µg/mL,11 to 100 µg/mL,,
"Cc1ccc2c(c1)[n+]([O-])c(C(Cl)=NO)c[n+]2[O-] [Example 7, 2-(α-chloro)-carboxaldoxime-7-methyl-quinoxaline-1,4-dioxide]",,25 µg/mL,25 µg/mL,25 µg/mL,25 µg/mL,11 to 100 µg/mL,11 to 100 µg/mL,,MIC [3]: 25 µg/mL; MIC [5]: 50 µg/mL
"[O-][n+]1cc(C(Cl)=NO)[n+]([O-])c2cc(Cl)ccc21 [Example 8, 2-(α-chloro)-carboxaldoxime-7-chloro-quinoxaline-1,4-dioxide]",10 to 25 µg/mL,10 µg/mL,25 µg/mL,25 µg/mL,11 to 100 µg/mL,11 to 100 µg/mL,11 to 100 µg/mL,,
"Cc1cc2c(cc1C)[n+]([O-])c(C(Cl)=NO)c[n+]2[O-] [Example 9, 2-(α-chloro)-carboxaldoxime-6.7-dimethyl-quinoxaline-1,4-dioxide]",,11 to 100 µg/mL,> 100 µg/mL,11 to 100 µg/mL,11 to 100 µg/mL,> 100 µg/mL,> 100 µg/mL,> 100 µg/mL,
"CCC(=O)ON=C(Cl)c1c[n+]([O-])c2ccc(Cl)cc2[n+]1[O-] [Example 10, 2-(α-chloro-0-propionyl)-carboxaldoxime-7-chloro-quinoxaline-1,4-dioxide]",,,,11 to 100 µg/mL,1 µg/mL,11 to 100 µg/mL,,,MIC [3]: 1 µg/mL; MIC [5]: 1 µg/mL
"CC(=O)ON=C(Cl)c1c[n+]([O-])c2ccc(Cl)cc2[n+]1[O-] [Example 11, 2-[α-chloro-(0-acetyl)-carboxaldoxime]-7-chloro-quinoxaline-1,4-dioxide]",,,,11 to 100 µg/mL,2 µg/mL,11 to 100 µg/mL,11 to 100 µg/mL,,MIC [3]: 1 µg/mL; MIC [5]: 2 µg/mL
"CC(=O)ON=C(Cl)c1c[n+]([O-])c2ccc(C)cc2[n+]1[O-] [Example 12, 2-[α-chloro-(0-acetyl)-7-methyl-quinoxaline]-1,4-dioxide]",,,,,1 µg/mL,11 to 100 µg/mL,11 to 100 µg/mL,,MIC [3]: 10 µg/mL; MIC [5]: 10 µg/mL
"O=C(CCl)ON=C(Cl)c1c[n+]([O-])c2ccccc2[n+]1[O-] [Example 13, 2-[α-chloro-(0-chloroacetylcarboxaldoxime)]-quinoxaline-1,4-dioxide]",25 µg/mL,25 µg/mL,25 µg/mL,20 µg/mL,11 to 100 µg/mL,11 to 100 µg/mL,11 to 100 µg/mL,50 µg/mL,
O=C(ON=C(Cl)c1c[n+]([O-])c2ccccc2[n+]1[O-])c1ccc([N+](=O)[O-])cc1 [Example 14],50 µg/mL,,,,11 to 100 µg/mL,,11 to 100 µg/mL,11 to 100 µg/mL,
"CCOC(=NO)c1c[n+]([O-])c2ccccc2[n+]1[O-] [Example 17 (ethoxy), 2-(α-ethoxy)-carboxaldoxime-quinoxaline-1,4 dioxide]",,,11 to 100 µg/mL,10 µg/mL,,11 to 100 µg/mL,11 to 100 µg/mL,11 to 100 µg/mL,
"COC(=NO)c1c[n+]([O-])c2ccccc2[n+]1[O-] [Example 17 (methoxy), 2-(α-methoxy)-carboxaldoxime-quinoxaline-1,4-dioxide]",2 to 10 µg/mL,10 µg/mL,10 µg/mL,10 µg/mL,,11 to 100 µg/mL,11 to 100 µg/mL,,
"CNC(=NO)c1c[n+]([O-])c2ccccc2[n+]1[O-] [Example 18 (methylamino), 2-(N-methylamino)-carboxaldoxime-quinoxaline-1,4-dioxide]",10 to 20 µg/mL,25 µg/mL,25 µg/mL,10 µg/mL,,,,25 µg/mL,"MIC [4]: 11 to 100 µg/mL; Protection [13]: + (indicates protection >80%); Protection [14, 21]: + (indicates protection >80%); Protection [15]: + (indicates protection >80%)"
"CCNC(=NO)c1c[n+]([O-])c2ccccc2[n+]1[O-] [Example 18, 2-(N-ethylamino)-carboxamidoxime-quinoxaline-1,4-dioxide]",10 to 25 µg/mL,25 µg/mL,25 µg/mL,10 µg/mL,,,,25 µg/mL,"MIC [4]: 11 to 100 µg/mL; Protection [13]: + (indicates protection >80%); Protection [14, 21]: +/- (indicates protection 50-80%)"
"CCCNC(=NO)c1c[n+]([O-])c2ccccc2[n+]1[O-] [Example 20, 2-(propylamino)-carboxamidoxime-quinoxaline-1,4-dioxide]",25 to 50 µg/mL,25 µg/mL,25 µg/mL,10 µg/mL,11 to 100 µg/mL,,,25 µg/mL,"MIC [1]: 10 µg/mL; MIC [16]: 11 to 100 µg/mL; MIC [3]: 11 to 100 µg/mL; MIC [4]: 11 to 100 µg/mL; MIC [5]: 11 to 100 µg/mL; Protection [13]: + (indicates protection >80%); Protection [17]: + (indicates protection >80%); Protection ([14]; systemic St. aur infection, 5 mg × 2 per day): - (indicates protection <50%)"
"CN(C)NC(=NO)c1c[n+]([O-])c2ccccc2[n+]1[O-] [Example 21e, 2-(α-N-dimethyl-hydrazino)-carboxaldoxime-quinoxaline-1,4-dioxide]",25 µg/mL,10 µg/mL,2 to 10 µg/mL,10 to 25 µg/mL,,,,100 µg/mL,
"CCN(CC)C(=NO)c1c[n+]([O-])c2ccccc2[n+]1[O-] [Example 22, 2-(N-diethylamino)-carboxaldoxime-quinoxaline-1,4-dioxide]",,11 to 100 µg/mL,50 µg/mL,11 to 100 µg/mL,,,,50 µg/mL,MIC [1]: 10 µg/mL
"CC(=O)NNC(=NO)c1c[n+]([O-])c2ccccc2[n+]1[O-] [Example 24, 2-N-(acetyl-hydrazino)-carboxaldoxime-quinoxaline-1,4-dioxide]",,11 to 100 µg/mL,11 to 100 µg/mL,10 µg/mL,11 to 100 µg/mL,,,11 to 100 µg/mL,"MIC [4]: 11 to 100 µg/mL; Protection [13]: + (indicates protection >80%); Protection [14, 21]: + (indicates protection >80%)"
"[O-][n+]1cc(C(=NO)NN2CCOCC2)[n+]([O-])c2ccccc21 [Example 25, 2-(N-morpholinoamino)-carboxamidoxime-quinoxaline-1,4-dioxide]",,,,,,,,,LD50 [18]: 1240 mg/kg; LD50 [19]: 428 mg/kg
"CN1CCN(C(=NO)c2c[n+]([O-])c3ccccc3[n+]2[O-])CC1 [Example 26a, 2-(4'-methyl-piperazino)-carboxaldoxime-quinoxaline-1,4-dioxide]",,,,,,,,,increase in weight gain [20]: 15.6%; LD50 [18]: 1240 mg/kg; LD50 [19]: 400 mg/kg
"CN(C)C(=NO)c1c[n+]([O-])c2ccccc2[n+]1[O-] [Example 30, 2-(dimethylamino)-carboxaldoxime-quinoxaline-1,4-dioxide]",,50 µg/mL,10 µg/mL,10 µg/mL,,,,,"Protection [13]: + (indicates protection >80%); Protection [17]: + (indicates protection >80%); Protection [14, 21]: +/- (indicates protection 50-80%); Protection [15]: + (indicates protection >80%)"
"CCC(=O)ON=C(Cl)c1c[n+]([O-])c2ccccc2[n+]1[O-] [Y = H, R = CH2CH3]",,25 µg/mL,25 µg/mL,10 µg/mL,,11 to 100 µg/mL,11 to 100 µg/mL,25 µg/mL,
[O-][n+]1cc(C(=NO)NN2CCOCC2)[n+]([O-])c2ccccc21 [drawing 5],,,,11 to 100 µg/mL,1 µg/mL,11 to 100 µg/mL,,,
CN1CCN(C(=NO)c2c[n+]([O-])c3ccccc3[n+]2[O-])CC1 [drawing 6],10 µg/mL,25 µg/mL,25 µg/mL,25 µg/mL,,,,,MIC [1]: 11 to 100 µg/mL; MIC [4]: 11 to 100 µg/mL
[O-][n+]1cc(C(=NO)NN2CCOCC2)[n+]([O-])c2ccccc21 [drawing 8],,,,,,,,,"Protection [13]: + (indicates protection >80%); Protection [14, 21]: + (indicates protection >80%); Protection [15]: - (indicates protection <50%)"
